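Dose response: 5 concentrations. Exposure: 48 h. Format: 96-well plates. Endpoint: linear interpolation; highest concentration if not reached. Here, GI50 denotes the concentration required for 50% inhibition of growth. TGI denotes the concentration required for complete inhibition of growth.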

Among the test systems are 786-0 renal; UO-31 renal; PC-3 prostate; SF-268 CNS; CCRF-CEM leukemia; HS 578T breast; SF-539 CNS; SK-MEL-28 melanoma; HCT-15 colon; SR leukemia.
Common to all, as to assay: growth of human tumour cells (NCI), 48 h

In the case of `CCC(=O)OC1=CN2C(=NC(c3ccc(N)cc3)=CC2c2cc(OC)c(OC)c(OC)c2)S1` (centres undefined), the GI50 in the experiment on 786-0 renal is 4.57 µM; with UO-31 renal it was 3.15 µM; in the experiment on PC-3 prostate it was 6.04 µM; in the experiment with SF-268 CNS, 3.57 µM; in the experiment with CCRF-CEM leukemia, 2.41 µM; in the experiment on HS 578T breast, 3.6 µM. Also, the GI50 is 2.12 µM in the experiment with SF-539 CNS, 5.54 µM in the experiment on SK-MEL-28 melanoma and 2.47 µM in the experiment on HCT-15 colon. Moreover, the TGI with 786-0 renal is 23.4 µM; in the experiment on UO-31 renal, 13.6 µM; in the experiment with PC-3 prostate, 42.9 µM; in the experiment on SF-268 CNS it was 14.4 µM; with CCRF-CEM leukemia, 9.13 µM; in the experiment with HS 578T breast, > 100 µM. Moreover, the TGI was 6.01 µM with SF-539 CNS, 18.3 µM with SK-MEL-28 melanoma and 29.6 µM with HCT-15 colon.

As for `CN(C)CCNc1c2c(c(NCCN(C)C)c3c(CO)c[nH]c13)C(=O)c1ccccc1C2=O`, the GI50 in the experiment with 786-0 renal is 3.38 µM; in the experiment with UO-31 renal, 3.31 µM; with PC-3 prostate, 2.6 µM; in the experiment on SF-268 CNS it was 4.27 µM; in the experiment with CCRF-CEM leukemia, 3.07 µM; with HS 578T breast it was 3.36 µM. Besides, the figures for the GI50 in the experiment with SF-539 CNS, with SK-MEL-28 melanoma and in the experiment with HCT-15 colon were 1.96 µM, 5.01 µM and 1.96 µM, respectively. Further, the TGI with 786-0 renal was 16.2 µM; with UO-31 renal it was 23.2 µM; in the experiment on PC-3 prostate it was 26.8 µM; in the experiment on SF-268 CNS it was 22.1 µM; in the experiment with CCRF-CEM leukemia, > 32.1 µM; in the experiment on HS 578T breast, 13.6 µM. Besides, the TGI with SF-539 CNS came to 4.72 µM; with SK-MEL-28 melanoma, 10.6 µM; in the experiment with HCT-15 colon, 10.6 µM.

As for `C=C1C(=O)O[C@H]2[C@H]1CC/C(COC(=O)/C=C/c1c[nH]c3ccccc13)=C\CC[C@@]1(C)O[C@@H]21`, the GI50 was 0.221 µM in the experiment on 786-0 renal; 0.157 µM in the experiment on UO-31 renal; 0.329 µM with PC-3 prostate; 0.229 µM with SF-268 CNS; 0.0733 µM in the experiment on CCRF-CEM leukemia; 0.353 µM in the experiment on HS 578T breast. Besides, the GI50 in the experiment with SF-539 CNS is 0.261 µM; with SK-MEL-28 melanoma, 0.332 µM; in the experiment with HCT-15 colon it was 0.181 µM. In addition, the TGI in the experiment with 786-0 renal amounted to 0.555 µM; in the experiment on UO-31 renal, 0.294 µM; in the experiment with PC-3 prostate, 1.52 µM; in the experiment on SF-268 CNS, 0.569 µM; in the experiment with CCRF-CEM leukemia it was 0.854 µM; with HS 578T breast, 2.92 µM. Moreover, the TGI turned out to be 0.941 µM in the experiment with SF-539 CNS, 1.3 µM in the experiment with SK-MEL-28 melanoma and 0.425 µM in the experiment with HCT-15 colon.

As to `CCC1OC(/C(C)=C/C(C)/C=C/C2C(C)C2/C=C/C2OC(CC(=O)O)CC(O)C2O)CC=C1C` (centres undefined), the GI50 with 786-0 renal, in the experiment with UO-31 renal, in the experiment with PC-3 prostate, in the experiment on SF-268 CNS, in the experiment with CCRF-CEM leukemia and with HS 578T breast was > 50 µM throughout. Further, the GI50 in the experiment with SF-539 CNS, in the experiment with SK-MEL-28 melanoma and with HCT-15 colon was > 50 µM throughout. Besides, the TGI with 786-0 renal, in the experiment with UO-31 renal, in the experiment with PC-3 prostate, with SF-268 CNS, in the experiment with CCRF-CEM leukemia and in the experiment with HS 578T breast was > 50 µM in each case. In addition, the TGI in the experiment with SF-539 CNS, in the experiment on SK-MEL-28 melanoma and in the experiment with HCT-15 colon was > 50 µM each time.

Turning to `S=C(Nc1ccccc1)N1CCn2c1nsc2=Nc1ccccc1`, the GI50 was 53.3 µM in the experiment with 786-0 renal; > 100 µM in the experiment with UO-31 renal; 53.3 µM in the experiment on PC-3 prostate; > 100 µM with SF-268 CNS; 31.4 µM in the experiment on CCRF-CEM leukemia; 53.4 µM in the experiment on HS 578T breast. The GI50 is > 100 µM in the experiment with SF-539 CNS, > 100 µM in the experiment on SK-MEL-28 melanoma and 78.2 µM in the experiment with HCT-15 colon. The TGI with 786-0 renal, in the experiment with UO-31 renal, with PC-3 prostate, in the experiment with SF-268 CNS, in the experiment on CCRF-CEM leukemia and in the experiment with HS 578T breast was > 100 µM each time. In addition, the TGI in the experiment with SF-539 CNS, in the experiment with SK-MEL-28 melanoma and in the experiment with HCT-15 colon was > 100 µM in each case.

In the case of `COc1cc(/C=C\c2cc(OC)c(OC)c(OC)c2)cc(NS(=O)(=O)c2cccc(Cl)c2)c1OC`, the GI50 was 0.0601 µM in the experiment with 786-0 renal; 0.0937 µM in the experiment with UO-31 renal; 0.0452 µM in the experiment on PC-3 prostate; 0.202 µM in the experiment with SF-268 CNS; 0.0492 µM in the experiment on CCRF-CEM leukemia; 0.0795 µM in the experiment on HS 578T breast. For the same molecule, the results for the GI50 in the experiment with SK-MEL-28 melanoma and in the experiment with HCT-15 colon were 1.61 µM and 0.146 µM, respectively. The TGI with 786-0 renal, with UO-31 renal, in the experiment with PC-3 prostate, with SF-268 CNS, with CCRF-CEM leukemia and in the experiment with HS 578T breast was > 100 µM throughout. The TGI in the experiment with SK-MEL-28 melanoma was 49 µM; in the experiment with HCT-15 colon, > 100 µM.

Consider `CC1(C)CC(=O)C(=CN2C(=O)CNC2=S)C(=O)C1`, for which the TGI with 786-0 renal, in the experiment on UO-31 renal, in the experiment with PC-3 prostate, in the experiment on SF-268 CNS, in the experiment on CCRF-CEM leukemia and in the experiment on HS 578T breast was > 100 µM each time. The TGI in the experiment on SF-539 CNS and in the experiment on HCT-15 colon was > 100 µM in each case.

On to `Cc1ccc([N+](=O)[O-])cc1NC(=O)C(=O)C1CCC2=C(Sc3ccccc3N2)C1=O` (centres undefined), for which the TGI with 786-0 renal, with UO-31 renal, with PC-3 prostate, with SF-268 CNS, with CCRF-CEM leukemia and in the experiment with HS 578T breast was > 100 µM throughout. Further, the TGI in the experiment with SF-539 CNS, in the experiment with SK-MEL-28 melanoma and in the experiment on HCT-15 colon was > 100 µM in each case.

Consider `CN1N=Nc2c(C(F)(F)F)nn(-c3ccccc3)c2N(C)C1=O`, for which the GI50 in the experiment on 786-0 renal, in the experiment with UO-31 renal, in the experiment on SR leukemia, in the experiment with PC-3 prostate, with SF-268 CNS and in the experiment on HS 578T breast was > 100 µM each time. Also, the GI50 in the experiment with SF-539 CNS, in the experiment on SK-MEL-28 melanoma and with HCT-15 colon was > 100 µM throughout. Besides, the TGI in the experiment with 786-0 renal, in the experiment with UO-31 renal, in the experiment with SR leukemia, in the experiment with PC-3 prostate, in the experiment on SF-268 CNS and with HS 578T breast was > 100 µM throughout. Besides, the TGI in the experiment on SF-539 CNS, in the experiment on SK-MEL-28 melanoma and in the experiment on HCT-15 colon was > 100 µM each time.

For `O=C(O)c1cc2c(c3ccsc13)-c1ccccc1CC2`, the GI50 was 49.7 µM in the experiment with 786-0 renal; 29.3 µM in the experiment on UO-31 renal; 40.9 µM in the experiment with PC-3 prostate; 44 µM in the experiment with SF-268 CNS; 37.6 µM in the experiment on CCRF-CEM leukemia; 30.5 µM with HS 578T breast. The GI50 was 36.5 µM with SF-539 CNS, 85.5 µM with SK-MEL-28 melanoma and 39 µM in the experiment with HCT-15 colon. Besides, the TGI in the experiment with 786-0 renal was > 100 µM; with UO-31 renal, 79.5 µM; in the experiment with PC-3 prostate, > 100 µM; in the experiment on SF-268 CNS, > 100 µM; in the experiment with CCRF-CEM leukemia it was > 100 µM; in the experiment with HS 578T breast, 88.9 µM. In addition, the TGI in the experiment with SF-539 CNS, in the experiment with SK-MEL-28 melanoma and in the experiment with HCT-15 colon was > 100 µM in each case.

Turning to `N#C/C(=C\c1cccnc1)c1nc2ccccc2o1`, the GI50 is > 100 µM in the experiment on 786-0 renal; 43.1 µM in the experiment on UO-31 renal; > 100 µM in the experiment with SR leukemia; > 100 µM in the experiment on PC-3 prostate; > 100 µM with SF-268 CNS; > 100 µM in the experiment with HS 578T breast. The GI50 in the experiment with SF-539 CNS, in the experiment with SK-MEL-28 melanoma and in the experiment on HCT-15 colon was > 100 µM throughout. Moreover, the TGI in the experiment on 786-0 renal, in the experiment on UO-31 renal, in the experiment on SR leukemia, in the experiment with PC-3 prostate, in the experiment on SF-268 CNS and in the experiment on HS 578T breast was > 100 µM in each case. The TGI in the experiment on SF-539 CNS, in the experiment on SK-MEL-28 melanoma and in the experiment with HCT-15 colon was > 100 µM in each case.

`O=C(/C=C/c1ccccc1)CCc1c(O)c2ccccc2oc1=O`: the TGI in the experiment with 786-0 renal, in the experiment with UO-31 renal, in the experiment with PC-3 prostate, in the experiment with SF-268 CNS, in the experiment with CCRF-CEM leukemia and in the experiment with HS 578T breast was > 100 µM each time. The TGI in the experiment with SF-539 CNS, in the experiment on SK-MEL-28 melanoma and in the experiment on HCT-15 colon was > 100 µM throughout.

`C=C(C)[C@@H]1CC[C@]2(C)[C@H](CC=C3[C@@H]4[C@H](C)[C@@H](C)CC[C@]4(CO)CC[C@]32C)[C@@]1(C)CCCN`: the GI50 in the experiment on 786-0 renal is 0.841 µM; in the experiment with UO-31 renal, 0.823 µM; with PC-3 prostate, 1.65 µM; in the experiment on SF-268 CNS, 1.22 µM; in the experiment with CCRF-CEM leukemia, 1.31 µM; with HS 578T breast it was 0.994 µM. Moreover, the values for the GI50 in the experiment with SF-539 CNS, in the experiment on SK-MEL-28 melanoma and with HCT-15 colon were 0.945 µM, 0.952 µM and 0.839 µM, respectively. Moreover, the TGI in the experiment on 786-0 renal is 1.58 µM; in the experiment with UO-31 renal, 2.24 µM; in the experiment with PC-3 prostate it was 7.48 µM; in the experiment with SF-268 CNS it was 2.69 µM; in the experiment with CCRF-CEM leukemia it was 5.26 µM; with HS 578T breast, 2.23 µM. Further, the TGI is 1.73 µM in the experiment with SF-539 CNS, 1.67 µM in the experiment on SK-MEL-28 melanoma and 1.76 µM in the experiment with HCT-15 colon.

Source of the values: PubChem BioAssay (NCI).
